The source made the active and inactive calls. No cut-off for these calls is given here.
What was measured:
Mus musculus [1] = assay: Antidepressant activity in icv dosed C57BL/6N mouse assessed as decrease in immobility time measured after 36 mins; format: functional, organism-based
[2] = Half life in ICR mouse at 3 mg/kg, iv measured up to 24 hrs by HPLC-MS/MS analysis; format: ADME, organism-based; conditions: in vivo
[3] = Acute toxicity in ip dosed ICR mouse assessed as lethal dose measured after 24 hrs; format: organism-based; conditions: in vivo
[4] = […] in ICR mouse assessed as decrease in body weight at 30 mg/kg, po administered for 28 days; format: organism-based; conditions: in vivo, 672 h, time 28 day
[5] = Effect on locomotor activity in ICR mouse assessed as hyperlocomotion at 10 mg/kg, ip measured after 90 mins; format: ADME, organism-based; conditions: in vivo, 1.5 h
[6] = Cytotoxicity against African green monkey Vero cells assessed as cell growth inhibition at 60 uM measured after 48 hrs by CCK8 assay relative to control; format: cell-based; conditions: chlorocebus sabaeus
[7] = Brain to blood partition coefficient of the compound; format: physicochemical, tissue-based; conditions: read-out: logBB (converted)
hERG (KCNH2) [8] = target: T1, hERG (KCNH2) (Homo sapiens, UniProt Q12809); assay: Inhibition of human ERG expressed in CHO cells at 30 uM with holding potential at -80 to -60 mV for 500s followed by raise in potential at +30 mV for 2 sec and subsequent repolarization to -60 mV for 2 sec by whole-cell patch clamp method relative to control; format: cell-based; conditions: CHO cells expressing human ERG
T1 sequence (Q12809 whole entry): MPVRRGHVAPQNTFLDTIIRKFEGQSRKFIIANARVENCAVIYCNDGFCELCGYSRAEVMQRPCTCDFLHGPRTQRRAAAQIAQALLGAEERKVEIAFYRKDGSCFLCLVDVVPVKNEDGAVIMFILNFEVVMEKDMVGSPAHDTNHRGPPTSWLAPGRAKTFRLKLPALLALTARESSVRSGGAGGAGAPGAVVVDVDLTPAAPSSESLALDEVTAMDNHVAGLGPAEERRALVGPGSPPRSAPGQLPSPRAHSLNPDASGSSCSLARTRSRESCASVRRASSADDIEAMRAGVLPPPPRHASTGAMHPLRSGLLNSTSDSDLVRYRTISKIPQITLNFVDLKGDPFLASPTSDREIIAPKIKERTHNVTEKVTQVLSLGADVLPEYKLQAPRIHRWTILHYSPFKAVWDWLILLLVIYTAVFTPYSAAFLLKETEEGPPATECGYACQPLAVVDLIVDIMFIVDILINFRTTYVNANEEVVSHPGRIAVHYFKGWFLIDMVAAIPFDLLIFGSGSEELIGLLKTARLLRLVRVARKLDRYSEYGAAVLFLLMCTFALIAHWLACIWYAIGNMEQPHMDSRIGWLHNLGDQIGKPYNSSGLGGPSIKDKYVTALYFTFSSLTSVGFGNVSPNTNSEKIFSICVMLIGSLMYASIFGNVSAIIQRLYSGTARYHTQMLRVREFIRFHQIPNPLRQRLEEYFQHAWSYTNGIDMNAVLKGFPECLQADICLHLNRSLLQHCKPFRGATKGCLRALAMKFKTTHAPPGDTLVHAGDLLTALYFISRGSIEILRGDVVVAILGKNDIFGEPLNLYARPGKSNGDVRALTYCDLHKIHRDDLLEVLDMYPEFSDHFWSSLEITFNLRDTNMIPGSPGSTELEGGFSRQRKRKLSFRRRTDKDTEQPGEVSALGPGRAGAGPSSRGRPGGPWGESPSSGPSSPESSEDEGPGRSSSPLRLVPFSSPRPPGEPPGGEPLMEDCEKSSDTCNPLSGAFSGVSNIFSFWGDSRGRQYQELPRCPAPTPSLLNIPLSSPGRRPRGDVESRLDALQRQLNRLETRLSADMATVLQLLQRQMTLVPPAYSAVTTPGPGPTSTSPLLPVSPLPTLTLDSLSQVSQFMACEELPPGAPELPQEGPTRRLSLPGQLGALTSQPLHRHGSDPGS

hERG (KCNH2) [9] = target: T1, hERG (KCNH2); assay: Inhibition of human ERG expressed in CHO cells at 100 uM with holding potential at -80 to -60 mV for 500s followed by raise in potential at +30 mV for 2 sec and subsequent repolarization to -60 mV for 2 sec by whole-cell patch clamp method relative to control; format: cell-based; conditions: CHO cells expressing human ERG
[10] = Volume of distribution at steady state in ICR mouse at 3 mg/kg, iv measured up to 24 hrs by HPLC-MS/MS analysis; format: ADME, organism-based; conditions: in vivo, read-out: Vdss
[11] = Drug concentration in ICR mouse plasma at 3 mg/kg, iv measured at 2 hrs; format: ADME, organism-based
[12] = Drug concentration in ICR mouse plasma at 3 mg/kg, iv measured at 0.5 hrs by LC-MS/MS analysis; format: ADME, organism-based
[13] = Drug concentration in ICR mouse brain at 10 mg/kg, po measured at 0.5 hrs by LC-MS/MS analysis; format: ADME, organism-based; conditions: read-out: Ct
Mus musculus [14] = assay: Antidepressant activity in ICR mouse assessed as decrease in immobility time at 30 mg/kg, ip measured after 26 mins by forced swim test; format: functional, organism-based
[15] = Drug concentration in ICR mouse brain at 3 mg/kg, iv measured at 0.5 hrs by LC-MS/MS analysis; format: ADME, organism-based; conditions: read-out: Ct
[16] = Ratio of drug concentration in brain to plasma in ICR mouse at 3 mg/kg, iv measured at 0.5 hrs by LC-MS/MS analysis; format: ADME, organism-based; conditions: read-out: BPR
[17] = Cmax in ICR mouse at 10 mg/kg, po measured up to 24 hrs by HPLC-MS/MS analysis; format: ADME, organism-based; design: route oral, dose 10 mg/kg, time <=24; conditions: in vivo
[18] = Cytotoxicity against human HEK293 cells assessed as cell growth inhibition at 60 uM measured after 48 hrs by CCK8 assay relative to control; format: cell-based
HEK293 = assay: Cytotoxicity against human HEK293 cells assessed as cell growth inhibition measured after 48 hrs by CCK8 assay; format: cell-based; conditions: HEK293, 48 h
[19] = Ratio of drug concentration in brain to plasma in ICR mouse at 10 mg/kg, po measured at 2 hrs by LC-MS/MS analysis; format: ADME, organism-based; conditions: read-out: BPR
[20] = Cytotoxicity against mouse L929 cells assessed as cell growth inhibition at 60 uM measured after 48 hrs by CCK8 assay relative to control; format: cell-based
[21] = Tmax in ICR mouse at 10 mg/kg, po measured up to 24 hrs by HPLC-MS/MS analysis; format: ADME, organism-based; conditions: in vivo
[22] = Drug concentration in ICR mouse brain at 10 mg/kg, po measured at 2 hrs by LC-MS/MS analysis; format: ADME, organism-based; conditions: read-out: Ct
[23] = Ratio of drug concentration in brain to plasma in ICR mouse at 10 mg/kg, po measured at 0.5 hrs by LC-MS/MS analysis; format: ADME, organism-based; conditions: read-out: BPR
Glutamate NMDA receptor = assay: Positive allosteric modulation of C57BL/6 mouse NMDA receptor assessed as potentiation of NMDA-induced current in presence of saturating glutamate by patch-clamp method; format: tissue-based, Brain
[24] = MRT in ICR mouse at 3 mg/kg, iv measured up to 24 hrs by HPLC-MS/MS analysis; format: ADME, organism-based; conditions: in vivo
[25] = AUC (0 to t) in ICR mouse at 10 mg/kg, po measured up to 24 hrs by HPLC-MS/MS analysis; format: ADME, organism-based; design: route oral, dose 10 mg/kg, time <=24; conditions: in vivo
Mus musculus [26] = assay: Antidepressant activity in ICR mouse assessed as decrease in immobility time at 3 to 10 mg/kg, ip measured after 26 mins by forced swim test; format: functional, organism-based; conditions: dose 3-10 mg/kg
[27] = Cytotoxicity against African green monkey Vero cells assessed as cell growth inhibition at 120 uM measured after 48 hrs by CCK8 assay relative to control; format: cell-based; conditions: chlorocebus sabaeus
[28] = Drug concentration in ICR mouse plasma at 10 mg/kg, po measured at 2 hrs by LC-MS/MS analysis; format: ADME, organism-based
[29] = […] in ICR mouse assessed as body weight gain at 30 mg/kg, po administered for 28 days; format: organism-based; conditions: in vivo, 672 h, time 28 day
[30] = Effect on locomotor activity in ICR mouse assessed as hypolocomotion at 10 mg/kg, ip measured after 90 mins; format: ADME, organism-based; conditions: in vivo, 1.5 h
[31] = Cytotoxicity against mouse L929 cells assessed as cell growth inhibition at 120 uM measured after 48 hrs by CCK8 assay relative to control; format: cell-based
[32] = AUC (0 to t) in ICR mouse at 3 mg/kg, iv measured up to 24 hrs by HPLC-MS/MS analysis; format: ADME, organism-based; design: route intravenous, dose 3 mg/kg, time <=24; conditions: in vivo
[33] = Cytotoxicity against human HEK293 cells assessed as cell growth inhibition at 120 uM measured after 48 hrs by CCK8 assay relative to control; format: cell-based
[34] = Half life in ICR mouse at 10 mg/kg, po measured up to 24 hrs by HPLC-MS/MS analysis; format: ADME, organism-based; conditions: in vivo
L929 = assay: Cytotoxicity against mouse L929 cells assessed as cell growth inhibition measured after 48 hrs by CCK8 assay; format: cell-based; conditions: L929, 48 h
[35] = MRT in ICR mouse at 10 mg/kg, po measured up to 24 hrs by HPLC-MS/MS analysis; format: ADME, organism-based; conditions: in vivo
[36] = Oral bioavailability in ICR mouse at 10 mg/kg measured up to 24 hrs by HPLC-MS/MS analysis; format: ADME, organism-based; conditions: in vivo
Vero = assay: Cytotoxicity against African green monkey Vero cells assessed as cell growth inhibition measured after 48 hrs by CCK8 assay; format: cell-based; conditions: Chlorocebus sabaeus
[37] = Clearance in ICR mouse at 3 mg/kg, iv measured up to 24 hrs by HPLC-MS/MS analysis; format: ADME, organism-based; conditions: in vivo
[38] = Ratio of drug concentration in brain to plasma in ICR mouse at 3 mg/kg, iv measured at 2 hrs by LC-MS/MS analysis; format: ADME, organism-based; conditions: read-out: BPR
[39] = Drug concentration in ICR mouse plasma at 10 mg/kg, po measured at 0.5 hrs by LC-MS/MS analysis; format: ADME, organism-based
Mus musculus [40] = assay: Antidepressant activity in ICR mouse aassessed as inhibition of apomorphine-induced climbing behaviour at 10 mg/kg, ip administered prior to APO challenge and measured after 30 mins; format: functional, organism-based
[41] = […] in ICR mouse assessed as change in behaviour at 30 mg/kg, po administered for 28 days; format: organism-based; conditions: in vivo, 672 h, time 28 day
[42] = Drug concentration in ICR mouse brain at 3 mg/kg, iv measured at 2 hrs; format: ADME, organism-based; conditions: read-out: Ct

CNCCC(Oc1ccc(C(F)(F)F)cc1)c1ccccc1 (stereo unspecified)
Activity (Mus musculus [1]): Active

O=C(Nc1cc(Cl)cc(Cl)c1)c1ccc(Cn2nc(C(F)(F)F)cc2C(F)(F)F)o1
half-life [2]: 5 h | LD50 at 24 h [3]: 1500 mg/kg | Activity [4]: Toxic | Activity [5]: Non-Toxic | inhibition at 48 h, 60 µM [6]: 96.2% | Kp [7]: 3.98 | inhibition at 2 s, 30 µM (hERG (KCNH2) [8]): 49.1% | inhibition at 2 s, 100 µM (hERG (KCNH2) [9]): 68.4% | Vd [10]: 12.7 L/kg | concentration at 2 h [11]: 304 ng/mL | concentration at 0.5 h [12]: 506 ng/mL | concentration at 0.5 h [13]: 93.4 ng/mL | Activity (Mus musculus [14]): Active | concentration at 0.5 h [15]: 73.9 ng/mL | Kp at 0.5 h [16]: 0.14 | Cmax [17]: 989 ng/mL | inhibition at 48 h, 60 µM [18]: 42% | IC50 (HEK293): 84.8 µM | Kp at 2 h [19]: 0.15 | inhibition at 48 h, 60 µM [20]: 84.3% | Tmax [21]: 2 h | concentration at 2 h [22]: 148 ng/mL | Kp at 0.5 h [23]: 0.16 | EC50 (Glutamate NMDA receptor): 12.5 µM | MRT [24]: 3.4 h | AUC(0-t) at 24 h [25]: 4220 ng·h/mL | Activity (Mus musculus [26]): Active | inhibition at 48 h, 120 µM [27]: 95.8% | concentration at 2 h [28]: 989 ng/mL | Activity [29]: Non-Toxic | Activity [30]: Non-Toxic | inhibition at 48 h, 120 µM [31]: 90.6% | AUC(0-t) at 24 h [32]: 1750 ng·h/mL | inhibition at 48 h, 120 µM [33]: 73.6% | half-life [34]: 5.7 h | IC50 (L929): 29.7 µM | MRT [35]: 4.7 h | bioavailability [36]: 72.2% | IC50 (Vero): 23.2 µM | clearance [37]: 30 mL/min/kg | Kp at 2 h [38]: 0.16 | concentration at 0.5 h [39]: 580 ng/mL | Activity (Mus musculus [40]): inactive | Activity [41]: Non-Toxic | concentration at 2 h [42]: 49 ng/mL
